Data as given in US9738659B2, “Compositions of protein receptor tyrosine kinase inhibitors” (Purdue Pharma L.P., priority 2008, dated 2017).

How the values were obtained:
[1] = target: T1, TrkA (h) (Homo sapiens, UniProt P04629); assay: Radiometric based mixed micelle kinase assay; type: biochemical; conditions: read-out: IC50 antagonizing the TrkA kinase activity
T1 construct: Recombinant Human Cytoplasmic Domain (amino acids 441-796); His tag; host or cells: insect cells
Description: Compound Inhibition in a Radiometric Based Mixed Micelle Assay:
In a final reaction volume of 25 μL, TrkA (h) (3 nM) is incubated with the kinase reaction buffer (20 mM HEPES (pH 7.5), 10 mM MgCl2, 1 mM EGTA, 0.02% Brij 35, 0.02 mg/ml BSA, 0.1 mM Na3VO4, 2 mM DTT, 1% DMSO), 0.2 mg/ml substrate PolyEY(4:1) and […], and [33P-ATP] (specific activity approx. 500 cpm/pmol, concentration as required). The reaction is initiated by the addition of the MgATP mix. After incubation for at least 40 minutes at room temperature, the reaction is stopped by the addition of 5 μL of a 3% phosphoric acid solution. 10 μL of the reaction is then spotted onto a P30 filtermat and washed three times for 5 minutes in 75 mM phosphoric acid and once in methanol prior to drying and scintillation counting. TrkA: Recombinant Human Cytoplasmic Domain (amino acids 441-796), Histidine-tagged, expressed in insect cells. Activated in vitro via auto-phosphorylation. Mw=42.8 kDa. Substrates for kinases: poly(EY) for TRKA; poly(EY)(4:1) with 2 mM MnCl2, average Mw=16 kDa Standard conditions (unless otherwise specified): 30 nM TRKA, 0.2 mg/ml poly(EY)+2 mM MnCl2, and 10 μM ([γ-^33P]) ATP. Using the similar assay condition with other kinases of recombinant human cytoplasmic domain, the activities of other kinases could be also measured.

[2] = test system: CCI rats; assay: Chronic constriction injury (CCI) model of neuropathic pain in rats; type: in vivo, rat; conditions: CCI rats after single oral dose
Excerpt: Chronic Constriction Injury (CCI) Model of Neuropathic Pain in Rats.
The CCI model is one of the most commonly used mono-neuropathic pain model firstly described in details by Bennett and Xie (Bennett G J, Xie Y K. Pain. 1988; 33(1):87-107). It mimics important clinical chronic pain symptoms such as mechanical allodynia and thermal hyperalgesia. Chronic constriction injury of the sciatic nerve was produced by tying four loose ligatures around the left sciatic nerve according to the method of Bennett and Xie. […] Calibrated von Frey filaments were used to determine the lowest mechanical (tactile) threshold required to evoke a brisk paw withdrawal reflex in the rat hindpaws. Rats were allowed to acclimatize in wire mesh cages for 15-20 min prior to von Frey testing. Assessment of paw withdrawal thresholds (PWTs) using von Frey filaments was undertaken prior to CCI-surgery (pre-surgery baseline on day 0). Before the drug dosing on day 14, the pre-dose baseline was recorded for each rat. […] Drug-naïve CCI-rats (n=4-6 per group) were used. The oral vehicle was 0.5% CMC-Na/0.1% Tween 80 in distilled water. The positive control gabapentin was dissolved in the vehicle and orally given at 100 mg/kg (by oral gavage). Test compound was suspended in the vehicle and orally given at 50 mg/kg and 100 mg/kg. […]

T1 sequence (P04629 441-796): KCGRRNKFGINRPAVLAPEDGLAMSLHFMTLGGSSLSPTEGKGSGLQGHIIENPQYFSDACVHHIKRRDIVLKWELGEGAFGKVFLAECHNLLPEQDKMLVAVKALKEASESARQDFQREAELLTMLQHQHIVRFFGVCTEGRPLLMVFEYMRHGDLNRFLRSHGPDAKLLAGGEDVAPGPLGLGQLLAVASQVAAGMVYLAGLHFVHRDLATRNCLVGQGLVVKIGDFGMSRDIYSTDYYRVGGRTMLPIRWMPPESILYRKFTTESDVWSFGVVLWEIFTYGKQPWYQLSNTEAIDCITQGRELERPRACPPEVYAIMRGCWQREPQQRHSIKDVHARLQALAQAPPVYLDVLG

SMILES	IC50 [1] [nM]	Observed side effects (drowsiness, motor incoordination, other abnormality) [2]
Cc1ccc(Cl)cc1N1CCN(CCCNC(=O)c2ccc3c(c2)NC(=O)C2CCCCN32)CC1 (centres unmarked) [Compound 201, N-{3-[4-(5-chloro-2-methylphenyl)piperazin-1-yl]propyl}-6-oxo-6,6a,7,8,9,10-hexahydro-5H-pyrido[1,2-a]quinoxaline-3-carboxamide]	85	–
NCC1(CC(=O)O)CCCCC1 [gabapentin]	–	drowsiness or motor incoordination
